# Experimental data taken from US12012636B2, “Pulmonary hypertension biomarker” (NOVARTIS AG, priority 2014, dated 2024).
# Tested on: candidate biomarker gene transcripts (Ccl21, Col18a1, Cxcl12, Cxcl13, Dmp1, Frzb) in rat Hy/Su lungs
# Assay: Candidate biomarker mRNA levels (QPCR) in lung in the hypoxia/Sugen rat model of PH following treatment with Imatinib
# Type: in vivo
# Protocol: Sugen (250 mg; SU5416; Sigma-Aldrich®) was dissolved in vehicle (12.5 ml; 0.5% (wt/vol) carboxyl methylcellulose sodium, 0.9% (wt/vol) NaCl, 0.4% (vol/vol) polysorbate, 0.9% (vol/vol) benzyl alcohol in deionized water), sonicated for 15 min and then vortexed. On day 0, animals were anaesthetized, weighed and received Sugen 20 mg/kg by sub-cutaneous injection. […] Control animals remained in room air (21% O2) to serve as normoxic controls for the study. After 2 weeks, all animals were removed from the hypoxia chamber. At week 4, the animals were subjected to echocardiographic measurements under sevoflurane anaesthesia and monitored closely until fully recovered. Animals underwent RV catheterization for measurement of right ventricular pressure (RVP) under a mixture of ketamin and medetomidine anaesthesia. Following euthanasia by Schedule 1, the left lobe of the lung was removed, inflated and fixed in 10% formalin and embedded in paraffin for histological analysis. Lobes of the right lung were snap frozen for transcriptional profiling.
# Frozen rat lung samples, collected in TT2 tissue bags (K Bioscience® Cat #520021) were crushed using the Covaris CryoPrep CP02. Total RNA from the crushed lung samples was extracted by RNeasy Mini kit according to the manufacturer's protocol (Qiagen™). Genomic DNA was removed by treatment with DNase I (Turbo DNase kit, Invitrogen). The exact quantification of RNA was determined with a NanoDrop ND-1000 spectrophotometer. RNA quality was assessed by analyzing 18S and 28S rRNAs by microfluidics-based electrophoresis on a 2100 Bioanalyzer (Agilent Technologies, Santa Clara, Calif.).
# All animal procedures were conducted as described above.
# In this study, following administration of an initial dose of Sugen on day 0 and a period of 14 days in a hypoxia chamber following, rats were administered 100 mg/kg of Imatinib or vehicle control daily for a further two weeks.
# Following euthanasia by Schedule 1, the left lobe of the lung was removed, inflated and fixed in 10% formalin and embedded in paraffin for histological analysis, by airway inflation. Tissue sections (3 μm) were stained with antibodies against von Willebrand factor (vWF) and α-smooth muscle actin (α-SMA). Slides were examined using a DMLB and confocal microscope, digital camera, and IM50 imaging software (Leica Microsystems, London, UK). Small pulmonary vessels (10-100 μm diameter indicated by vWF staining) were assessed for degrees of circumferential α-SMA-positive staining indicative of muscularisation. Lobes of the right lung were snap frozen for candidate biomarker mRNA expression measurements. Total RNA was extracted and underwent quality control as mentioned in section above.
# cDNA was synthesised using the High Capacity RNA-to-cDNA Kit (Invitrogen) according to the kit manufacturer's protocol. QPCR was performed on an ABI Prism 7900HT sequence detection system (Applied Biosystems, USA), using TaqMan Universal PCR Master Mix (Applied Biosystems). Taqman assays were purchased from Applied Biosystems®. Relative expression was normalised to a combination of 10 different housekeeping genes. Data were analyzed using the SDS RQ Manager, software (Applied Biosystems, version 2.4). Normalised gene expression values for each gene (2^−Δct) were plotted and analysed using a two-way ANOVA in GraphPad Prism 6.02.
# [1] = rat Hy/Su lungs, Imatinib 100 mg/kg daily for two weeks vs vehicle, QPCR
smiles,measurement,setting,value
Cc1ccc(NC(=O)c2ccc(CN3CCN(C)CC3)cc2)cc1Nc1nccc(-c2cccnc2)n1 [Imatinib],CCL21 mRNA expression levels in lung samples,"day 28, imatinib group vs vehicle treated animals (increased vs naïve controls)",decrease
same,Ccl21 gene transcript in lung,[1],down-regulated
same,Col18a1 gene transcript in lung,[1],down-regulated
same,Cxcl12 gene transcript in lung,[1],down-regulated
same,Cxcl13 gene transcript in lung,[1],down-regulated
same,Dmp1 gene transcript in lung,[1],down-regulated
same,Frzb gene transcript in lung,[1],down-regulated
